From paper PMC9873984, “Membrane cholesterol regulates inhibition and substrate transport by the glycine transporter, GlyT2” (Life Science Alliance, 2023)

Biological target: T1, GlyT2 Y430L mutant (Homo sapiens, UniProt Q9Y345, Y430L)
T1 sequence (Q9Y345 1-797 Y430L): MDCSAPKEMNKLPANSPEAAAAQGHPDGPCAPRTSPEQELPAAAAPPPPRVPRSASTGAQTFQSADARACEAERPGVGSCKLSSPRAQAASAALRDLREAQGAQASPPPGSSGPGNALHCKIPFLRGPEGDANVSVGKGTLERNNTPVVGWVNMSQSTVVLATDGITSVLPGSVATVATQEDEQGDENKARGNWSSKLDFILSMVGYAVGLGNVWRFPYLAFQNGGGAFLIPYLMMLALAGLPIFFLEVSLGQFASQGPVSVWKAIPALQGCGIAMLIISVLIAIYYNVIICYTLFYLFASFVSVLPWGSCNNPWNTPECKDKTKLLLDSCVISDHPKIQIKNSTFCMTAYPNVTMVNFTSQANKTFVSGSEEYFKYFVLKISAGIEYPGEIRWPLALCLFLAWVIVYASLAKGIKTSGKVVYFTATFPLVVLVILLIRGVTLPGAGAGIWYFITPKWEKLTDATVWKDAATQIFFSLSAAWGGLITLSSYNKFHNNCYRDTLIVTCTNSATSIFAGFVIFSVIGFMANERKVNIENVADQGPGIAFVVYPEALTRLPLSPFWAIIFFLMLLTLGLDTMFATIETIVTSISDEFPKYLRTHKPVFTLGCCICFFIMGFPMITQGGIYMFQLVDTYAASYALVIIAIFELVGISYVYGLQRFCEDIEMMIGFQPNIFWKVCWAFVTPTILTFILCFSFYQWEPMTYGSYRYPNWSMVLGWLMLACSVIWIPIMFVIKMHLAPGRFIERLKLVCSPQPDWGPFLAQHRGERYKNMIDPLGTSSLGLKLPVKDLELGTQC
Assay: Inhibitor washout time course (reversibility)
Type: cell-based
Design: expressed in transfected cells; host or cells: Xenopus laevis oocytes injected with mutant RNA (pOTV vector)
Procedure: Reversibility of GlyT2 inhibitors was determined by applying an EC50 concentration of glycine followed by co-application of the inhibitor at an IC50 concentration once a stable current had been achieved. Inhibitors were applied for 4 min as this was sufficient time to produce substantial inhibition for each compound and allowed for their direct comparison. At the conclusion of 4 min (time 0), ND96 buffer was perfused through the recording chamber to wash the oocyte. […] Transport currents were normalized to glycine currents in the absence of inhibitor and converted to % recovery values via Y=It−It=0/Imax−It=0, where Y is % recovery, I is current in nA, Imax is the maximal current produced by the glycine EC50, and t is time in minutes. Washout kinetics were then determined by fitting % recovery values to the first-order rate equation: Y=(Y0−Plateau).e^(−Kt)+Plateau, where Y is the % recovery, Y0 is the point, which crosses the Y-axis (constrained to 0) and increases to the plateau (constrained to between 0 and 100), K is the rate constant (1/t), and t is time in minutes. […] Because of the slowly […] nature of the inhibitors, washout time courses involving cyclodextrin treatment could not be performed on the same cell. […] As these experiments could not occur on the same cell, differences in half-life and maximal recovery were analysed via an unpaired two-tailed t test.

[1] = washout after 4 min IC50 concentration

Row | Half-life (transport current recovery) [1] | Recovery at 30 Min [1] | Increase in recovery of current 30 min after application, vs WT [%] | SMILES
1 | No Recovery | No Recovery |  | CCCCCCCC/C=C\CCCCCCCC(=O)N[C@@H](Cc1c[nH]c2ccccc12)C(=O)O [Oleoyl-L-Tryptophan, oleoyl-L-tryptophan]
2 |  | 80.6% |  | CCCCCCCC/C=C\CCCCCCCC(=O)O[C@H](CC(=O)[O-])C[N+](C)(C)C [Oleoyl-L-Carnitine, oleoyl-L-carnitine]
3 |  | 67.9 ± 2.3 % | 16.8 | CCCCCCCC/C=C\CCCCCCCC(=O)N[C@@H](CC(C)C)C(=O)O [Oleoyl-L-Leucine, oleoyl-L-leucine]
4 |  | 72.5 ± 2.1 % | 17.4 | CCCCCCCC/C=C\CCCCCCCC(=O)N[C@@H](CCCCN)C(=O)O [Oleoyl-L-Lysine, oleoyl-L-lysine]
